Laboratory results published in patent US7897606B2, “5,6-di-substituted oxadiazolopyrazines and thiadiazolopyrazines as CXC-chemokine receptor ligands” (Schering Corporation, priority 2005, dated 2011).

Tests used:
CXCR1 = target: T1, CXCR1 (Homo sapiens, UniProt P25024); experiment: CXCR1 SPA receptor binding assay
T1 construct: purchased Biosignal; host or cells: CHO cells overexpressing hCXCR1 (membranes)
T1 sequence (P25024 1-350): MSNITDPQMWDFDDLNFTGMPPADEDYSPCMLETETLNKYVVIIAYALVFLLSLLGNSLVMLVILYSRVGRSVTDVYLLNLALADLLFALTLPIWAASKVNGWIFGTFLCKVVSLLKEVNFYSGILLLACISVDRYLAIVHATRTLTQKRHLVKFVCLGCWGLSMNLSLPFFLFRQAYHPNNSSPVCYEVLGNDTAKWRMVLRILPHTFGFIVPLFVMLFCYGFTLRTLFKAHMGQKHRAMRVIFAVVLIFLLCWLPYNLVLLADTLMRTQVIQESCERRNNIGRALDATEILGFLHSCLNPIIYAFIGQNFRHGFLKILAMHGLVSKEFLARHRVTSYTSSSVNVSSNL
Protocol: For each well of a 96 well plate, a reaction mixture of 10 μg hCXCR1-CHO overexpressing membranes (Biosignal) and 200 μg/well WGA-SPA beads (Amersham) in 100 μl can be prepared in CXCR1 assay buffer (25 mM HEPES, pH 7.8, 2 mM CaCl2, 1 mM MgCl2, 125 mM NaCl, 0.1% BSA) (Sigma). A 0.4 nM stock of ligand, [125I]-IL-8 (NEN) can be prepared in the CXCR1 assay buffer. 20× stock solutions of test compounds can be prepared in DMSO (Sigma). A 6× stock solution of IL-8 (R&D) can be prepared in CXCR2 assay buffer. The above solutions can be added to a 96-well assay plate (PerkinElmer) as follows: 10 μl test compound or DMSO, 40 μl CXCR1 assay buffer or IL-8 stock, 100 μl of reaction mixture, 50 μl of ligand stock (Final [Ligand]=0.1 nM). The assay plates can be shaken for 5 minutes on plate shaker, then incubated for 8 hours before cpm/well can be determined in Microbeta Trilux counter (PerkinElmer). % Inhibition of Total binding-NSB (250 nM IL-8) can be determined for IC50 values.

CXCR2 = target: T2, CXCR2 (Homo sapiens, UniProt P25025); experiment: CXCR2 SPA receptor binding assay
T2 construct: purchased Biosignal; host or cells: CHO cells overexpressing hCXCR2 (membranes)
T2 sequence (P25025 1-360): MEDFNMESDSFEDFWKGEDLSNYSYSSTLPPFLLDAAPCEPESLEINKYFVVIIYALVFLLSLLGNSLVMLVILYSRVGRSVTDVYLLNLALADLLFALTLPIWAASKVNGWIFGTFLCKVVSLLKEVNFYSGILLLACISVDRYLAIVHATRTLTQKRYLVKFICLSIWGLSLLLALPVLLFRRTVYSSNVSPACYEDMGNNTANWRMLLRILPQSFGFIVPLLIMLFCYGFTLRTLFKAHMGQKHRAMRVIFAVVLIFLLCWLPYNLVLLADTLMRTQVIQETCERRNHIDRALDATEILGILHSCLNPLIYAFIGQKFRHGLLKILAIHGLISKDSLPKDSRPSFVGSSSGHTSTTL
Protocol: For each well of a 96 well plate, a reaction mixture of 4 μg hCXCR2-CHO overexpressing membranes (Biosignal) and 200 μg/well WGA-SPA beads (Amersham) in 100 μl can be prepared in CXCR2 assay buffer (25 mM HEPES, pH 7.4, 2 mM CaCl2, 1 mM MgCl2). A 0.4 nM stock of ligand, [125I]-IL-8 (NEN), can be prepared in the CXCR2 assay buffer. 20× stock solutions of test compounds can be prepared in DMSO (Sigma). A 6× stock solution of GRO-α (R&D) can be prepared in CXCR2 assay buffer. The above solutions can be added to a 96-well assay plate (PerkinElmer or Corning) as follows: 10 μl test compound or DMSO, 40 ul CXCR2 assay buffer or GRO-α stock, 100 μl of reaction mixture, 50 μl of ligand stock (Final [Ligand]=0.1 nM). When 40× stock solutions of test compounds in DMSO can be prepared, then the above protocol can be used except instead 5 μl test compound or DMSO and 45 μl CXCR2 assay buffer can be used. The assay plates can be shaken for 5 minutes on a plate shaker, then incubated for 2-8 hours before cpm/well can be determined in Microbeta Trilux counter (PerkinElmer). % Inhibition of total binding minus non-specific binding (250 nM Gro-α or 50 μM antagonist) can be determined and IC50 values can be calculated.

- Ki (CXCR1): 4.22 µM
- Ki (CXCR2): 0.196 µM
SMILES: CC[C@@H](Nc1nc2nonc2nc1Nc1cccc(C(=O)N(C)C)c1O)c1ccc(C)o1 [Compound 4]
